Patent publication US7572600B2, “Enzymatic activities in chemokine-mediated inflammation” (Chemocentryx, Inc., priority 2004, dated 2009)
“Also recorded” adds a separate entry of the source. Values belong to the molecule of their own block, whether it stands above or below them. Where no end group is shown, it is not given here.

How the values were obtained:
CCR1 [1] = molecular target: T1, CCR1 (Homo sapiens, UniProt P32246); assay: Competition binding with 125I-MIP-1α on L1.2-CCR1 cells; set-up: endogenous in cells; host or cells: human CD14+ monocytes from buffy coats
T1 sequence (P32246 1-355): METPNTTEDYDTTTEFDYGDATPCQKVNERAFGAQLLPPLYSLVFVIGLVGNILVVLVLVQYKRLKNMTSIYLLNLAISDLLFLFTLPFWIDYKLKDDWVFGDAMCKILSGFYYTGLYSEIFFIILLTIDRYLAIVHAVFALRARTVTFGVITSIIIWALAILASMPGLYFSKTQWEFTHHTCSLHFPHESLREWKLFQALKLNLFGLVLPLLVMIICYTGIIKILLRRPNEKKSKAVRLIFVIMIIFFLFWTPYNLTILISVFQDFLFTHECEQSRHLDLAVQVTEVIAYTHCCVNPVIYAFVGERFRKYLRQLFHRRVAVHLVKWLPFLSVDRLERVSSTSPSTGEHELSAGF
Experimental: Binding assay. Competition binding studies were conducted using monocytes, L1.2-CCR1 or L1.2-FPRL1 cells. Cells were incubated for 3 hr at 4° C. with ^125I-MIP-1α (final concentration ˜0.05 nM) or ^125I-WKYMVm (final concentration ˜0.01 nM) in buffer (25 mM HEPES, 140 mM NaCl, 1 mM CaCl2, 5 mM MgCl2 and 0.2% BSA, adjusted to pH 7.1) in the presence of increasing amounts of unlabeled chemokine. Reactions were aspirated onto PEI-treated GF/B glass filters using a cell harvester (Packard). Filters were washed twice (25 mM HEPES, 500 mM NaCl, 1 mM CaCl2, 5 mM MgCl2, adjusted to pH 7.1). Scintillant (MicroScint-10; 35 μl) was added to the filters and counted in a Packard Topcount scintillation counter. Data were analyzed and plotted using Prism (GraphPad Software, San Diego, Calif.).

FPRL1 = molecular target: T2, FPRL1 (Homo sapiens, UniProt P25090); assay: Competition binding with 125I-WKYMVm on human monocytes; set-up: endogenous in cells; host or cells: human CD14+ monocytes from buffy coats
T2 sequence (P25090 1-351): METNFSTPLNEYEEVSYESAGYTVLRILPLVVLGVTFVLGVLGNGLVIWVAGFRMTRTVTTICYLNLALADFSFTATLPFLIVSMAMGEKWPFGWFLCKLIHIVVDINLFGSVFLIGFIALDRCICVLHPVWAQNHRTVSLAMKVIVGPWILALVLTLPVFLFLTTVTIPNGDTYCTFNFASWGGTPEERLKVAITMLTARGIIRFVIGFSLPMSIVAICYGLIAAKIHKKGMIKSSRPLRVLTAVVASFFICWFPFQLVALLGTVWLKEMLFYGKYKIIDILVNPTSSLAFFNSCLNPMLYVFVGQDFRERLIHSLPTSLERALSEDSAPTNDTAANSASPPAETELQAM

CCR1 [2] = molecular target: T1, CCR1; assay: Calcium mobilization in murine L1.2 cells expressing human CCR1; type: cell-based; set-up: expressed in transfected cells; host or cells: murine L1.2 cells (G-418 selected transfectant); conditions: L1.2 cells stably expressing human CCR1
Experimental: Calcium Mobilization Assay. Cells were loaded for 1 hour with 2 μM indo-1/AM dye (Molecular Probes, Eugene, Oreg.) in culture medium, then washed with 10 ml PBS and resuspended at 10^6/ml in HBSS containing 1% FBS. Cytosolic calcium responses were determined using a Photon Technology International (Lawrenceville, N.J.) fluorimeter, with excitation at 350 nm and dual emission at 400 and 490 nm. Alternatively, cells were loaded with 5 μg/ml Fluo-4 AM dye (Molecular Probes, Eugene, Oreg.), then washed and analyzed on a Fluorometric Imaging Plate Reader 384 (FLIPR^384 Molecular Devices, Sunnyvale, Calif.), with 505 nm excitation and 530 nm emission.
Receptor signaling assay. For individual measurements, cells were loaded for 45 min at room temperature with 2 μM indo-1/AM (Invitrogen, Carlsbad Calif.) in culture medium, then washed with 10 ml PBS and resuspended at 10^6 cells/ml in HBSS containing 0.1% BSA. Cytosolic calcium levels were determined using a Photon Technology International fluorimeter (excitation at 350 nm, ratio of dual emission at 400 and 490 nm). For measuring calcium dose responses, cells were analyzed with a Fluorometric Imaging Plate Reader 384 (FLIPR^384) (Molecular Devices, Sunnyvale, Calif.). Cells were loaded for 1 hr at 37° C. with 5 μM fluo-4 in HBSS with 0.1% BSA, then washed, transferred to black-wall 96-well plates, and subsequently excited at 505 nm with emission recorded at 530 nm with a standard protocol provided by the manufacture. Cells were stimulated with agonists 20 s after the monitoring of fluorescence began. Data were analyzed and plotted in arbitrary units of fluorescence using Prism. To ensure that responses were specific to FPRL1, we utilized a selective small-molecule antagonist of human FPRL1, generated by ChemoCentryx, which was optimized from a high throughput compound library screening approach.

- IC50 (FPRL1): 10 nM
Molecule: MLWRRKIGPQMTLSHAAG [SHAAGtide]
- inhibition of 125I-MIP-1α binding (CCR1 [1]): unable to inhibit binding; also recorded: does not bind CCR1

B1: CCL23β Δ24: truncated form of CCL23β lacking the 24-residue N-terminal domain, beginning with the SHAAGtide insertion (protein, listed as Homo sapiens)
chain: MLWRRKIGPQMTLSHAAGFHATSADCCISYTPRSIPCSLLESYFETNSECSKPGVIFLTKKGRRFCANPSDKQVQVCMRMLKLDTRIKTRKN
- calcium mobilization in the CCR1 transfectant (CCR1 [2]): effective at inducing calcium mobilization
